Patent US9120805B2, “Substituted pyrrolo[1,2-A]pyrazin-1-ones and pyrazolo[1,5-A]pyrazin-4-ones as inhibitors of tankyrase and poly(ADP-ribose)polymerase activity” (Merck Patent GmbH, priority 2012, dated 2015)
Counter-ions that a name gives are not always drawn.

What was measured:
[1] = biological target: T1, GST-tagged Tankyrase-1 (1023-1327 aa) (Homo sapiens, UniProt O95271); assay: Tankyrase 1 autoparsylation assay (HTRF enzyme assay); type: biochemical
T1 construct: GST-tagged Tankyrase-1 (1023-1327 aa)
Description: (§1) Biochemical Activity Testing of Tankyrase 1 and 2: Autoparsylation Assay
(§2) The autoparsylation assay is run in two steps: the enzymatic reaction in which GST-tagged Tankyrase-1, resp Tankyrase-2 transferred biotinylated ADP-ribose to itself from biotinylated NAD as co-substrate and the detection reaction where a time resolved FRET between cryptate labelled anti-GST bound to the GST tag of the enzyme and Xlent® labelled-streptavidin bound the biotin-parsylation residue is analysed. The autoparsylation activity was detectable directly via the increase in HTRF signal.
(§3) The autoparsylation assay is performed as 384-well HTRF® (Cisbio, Codolet, France) assay format in Greiner low volume nb 384-well microtiter plates and is used for high throughput screen. 250 nM GST-tagged Tankyrase-1 (1023-1327 aa), respectively about 250 nM GST-tagged Tankyrase-2 (873-1166 aa) and 5 μM bio-NAD (Biolog, Life science Inst., Bremen, Germany) as co-substrate are incubated in a total volume of 5 μl (50 mM HEPES, 4 mM Mg-chloride, 0.05% Pluronic F-68, 1.4 mM DTT, 0.5% DMSO, pH 7.7) in the absence or presence of the test compound (10 dilution concentrations) for 90 min at 30° C. The reaction is stopped by the addition of 1 μl 50 mM EDTA solution. 2 μl of the detection solution (1.6 μM SA-Xlent® (Cisbio, Codolet, France), 7.4 nM Anti-GST-K® (Eu-labelled anti-GST, Cisbio, Codolet, France) in 50 mM HEPES, 800 mM KF, 0.1% BSA, 20 mM EDTA, 0.1% CHAPS, pH 7.0) are added. After 1 h incubation at room temperature the HTRF is measured with an Envision multimode reader (Perkin Elmer LAS Germany GmbH) at excitation wavelength 340 nm (laser mode) and emission wavelengths 615 nm and 665 nm. The ratio of the emission signals is determined. The full value used is the inhibitor-free reaction. The pharmacological zero value used is XAV-939 (Tocris) in a final concentration of 5 μM. The inhibitory values (IC50) are determined using either the program Symyx Assay Explorer® or Condosseo® from GeneData.

[2] = biological target: T2, GST-tagged Tankyrase-2 (873-1166 aa) (Homo sapiens, UniProt Q9H2K2); assay: Tankyrase 2 autoparsylation assay (HTRF enzyme assay); type: biochemical
T2 construct: GST-tagged Tankyrase-2 (873-1166 aa)
Description: as §1, §2, §3

tankyrase 1/2 = assay: Cellular inhibition of Tankyrase: increase of Axin2 level in DLD1 cells (Luminex); type: cell-based; conditions: 24 hours, read-out: EC50 tankyrase 1/2 (cell assay)
Description: Measurement of Cellular Inhibition of Tankyrase
Since Tankyrases have been described to modulate cellular level of Axin2 (Huang et al., 2009; Nature) the increase of Axin2 level is used as read-out for determination of cellular inhibition of Tankyrases in a Luminex based assay.
Cells of the colon carcinoma cell line DLD1 are plated in 96 well plates with 1.5×10^4 cells per well. Next day, cells are treated with a serial dilution of test compound in seven steps as triplicates with a final DMSO concentration of 0.3%. After 24 hours, cells are lysed in lysis buffer (20 mM Tris/HCl pH 8.0, 150 mM NaCl, 1% NP40, 10% Glycerol) and lysates are cleared by centrifugation through a 96 well filter plate (0.65 μm). Axin2 protein is isolated from cell lysates by incubation with a monoclonal anti-Axin2 antibody (R&D Systems #MAB6078) that is bound to fluorescent carboxybeads. Then, bound Axin2 is specifically detected with a polyclonal anti-Axin2 antibody (Cell Signaling #2151) and an appropriate PE-fluorescent secondary antibody. The amount of isolated Axin2 protein is determined in a Luminex^200 machine (Luminex Corporation) according to the manufacturer's instruction by counting 100 events per well. Inhibition of Tankyrase by test compounds results in higher levels of Axin2 which directly correlates with an increase of detectable fluorescence. As controls cells are treated with solvent alone (neutral control) and with a Tankyrase reference inhibitor IWR-2 (3E-06 M) which refers as control for maximum increase of Axin2. For analysis, the obtained data are normalized against the untreated solvent control and fitted for determination of the EC50 values using the Assay Explorer software (Accelrys).

T2 sequence (Q9H2K2 873-1166): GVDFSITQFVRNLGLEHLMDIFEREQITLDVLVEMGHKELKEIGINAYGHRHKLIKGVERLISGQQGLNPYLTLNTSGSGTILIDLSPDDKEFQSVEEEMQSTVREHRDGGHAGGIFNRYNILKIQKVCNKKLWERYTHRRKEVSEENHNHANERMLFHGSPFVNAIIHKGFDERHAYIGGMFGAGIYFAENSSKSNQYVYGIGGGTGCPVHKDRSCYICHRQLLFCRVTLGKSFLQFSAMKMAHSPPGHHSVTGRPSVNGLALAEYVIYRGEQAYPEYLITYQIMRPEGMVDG
T1 sequence (O95271 1023-1327): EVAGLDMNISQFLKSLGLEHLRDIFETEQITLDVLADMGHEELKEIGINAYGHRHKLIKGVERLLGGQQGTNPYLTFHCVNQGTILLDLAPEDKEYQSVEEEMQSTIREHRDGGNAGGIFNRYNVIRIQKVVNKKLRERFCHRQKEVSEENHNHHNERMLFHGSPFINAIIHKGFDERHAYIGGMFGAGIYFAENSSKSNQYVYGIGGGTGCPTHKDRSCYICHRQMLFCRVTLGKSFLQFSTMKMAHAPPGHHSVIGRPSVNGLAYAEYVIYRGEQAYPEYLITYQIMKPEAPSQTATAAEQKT

SMILES	IC50 [1]	IC50 [2]	EC50 (tankyrase 1/2)
O=c1[nH]c(-c2ccc(Br)cc2)cn2cccc12 [Compound A24, 3-(4-bromo-phenyl)-2H-pyrrolo[1,2-a]pyrazin-1-one]	< 300 nM	< 300 nM	–
CN1CCC(c2ccc(-c3cn4cc(Cl)cc4c(=O)[nH]3)cc2)CC1 [Compound A82, 7-chloro-3-[4-(1-methyl-piperidin-4-yl)-phenyl]-2H-pyrrolo[1,2-a]pyrazin-1-one]	< 300 nM	300 to 3000 nM	300 to 3000 nM
Cc1nc(-c2ccc(-c3cn4nc(CO)cc4c(=O)[nH]3)cc2)no1 [Compound A21, 2-hydroxymethyl-6-[4-(5-methyl-[1,2,4]oxadiazol-3-yl)-phenyl]-5H-pyrazolo[1,5-a]pyrazin-4-one]	300 to 3000 nM	3000 to 50000 nM	–
CC(C)(O)c1ccc(-c2cn3cc(C#N)cc3c(=O)[nH]2)cc1 [Compound A62, 3-[4-(1-hydroxy-1-methyl-ethyl)-phenyl]-1-oxo-1,2-dihydro-pyrrolo[1,2-a]pyrazine-7-carbonitrile]	–	–	3000 to 50000 nM
O=c1[nH]c(-c2ccc(C3(O)CCNCC3)cc2)cn2cccc12 [Compound A99]	300 to 3000 nM	300 to 3000 nM	3000 to 50000 nM
CC(C)(O)c1ccc(-c2cn3nc(C(F)(F)F)cc3c(=O)[nH]2)cc1 [Compound A69, 6-[4-(1-hydroxy-1-methyl-ethyl)phenyl]-2-trifluoromethyl-5H-pyrazolo[1,5-a]pyrazin-4-one]	300 to 3000 nM	3000 to 50000 nM	3000 to 50000 nM
O=c1[nH]c(-c2ccc(C3CCNCC3)cc2)cn2cc(Cl)cc12 [Compound A78, 7-Chloro-3-(4-piperidin-4-yl-phenyl)-2H-pyrrolo[1,2-a]pyrazin-1-one]	–	–	300 to 3000 nM
Cc1cc2c(=O)[nH]c(-c3ccc(C(C)(C)C)cc3)cn2n1 [Compound A30, 6-(4-tert-butyl-phenyl)-2-methyl-5H-pyrazolo[1,5-a]pyrazin-4-one]	< 300 nM	300 to 3000 nM	< 300 nM
COCCn1cc(-c2ccc(-c3cn4cccc4c(=O)[nH]3)cc2)cn1 [Compound A26, 3-{4-[1-(2-methoxy-ethyl)-1H-pyrazol-4-yl]-phenyl}-2H-pyrrolo[1,2-a]pyrazin-1-one]	< 300 nM	< 300 nM	300 to 3000 nM
Cc1ccc2c(=O)[nH]c(-c3ccc(Br)cc3)cn12 [Compound A94]	< 300 nM	300 to 3000 nM	300 to 3000 nM
O=c1[nH]c(-c2ccc(C3(O)CNC3)cc2)cn2cccc12 [Compound A86, 3-[4-(3-hydroxy-azetidin-3-yl)-phenyl]-2H-pyrrolo[1,2-a]pyrazin-1-one hydrochloride]	300 to 3000 nM	300 to 3000 nM	3000 to 50000 nM
O=c1[nH]c(-c2ccc(OC(F)(F)F)cc2)cn2nc(CCl)cc12 [Compound A33, 2-chloromethyl-6-(4-trifluoromethoxy-phenyl)-5H-pyrazolo[1,5-a]pyrazin-4-one]	300 to 3000 nM	–	–
O=c1[nH]c(-c2ccc(Br)cc2)cn2nc(C(F)(F)F)cc12 [Compound A67, 6-(4-bromo-phenyl)-2-trifluoromethyl-5H-pyrazolo[1,5-a]pyrazin-4-one]	300 to 3000 nM	–	–
O=c1[nH]c(-c2ccc(-c3cnn(CCOC4CCCCO4)c3)cc2)cn2cccc12 (stereo not drawn) [Compound A31, 3-(4-{1-[2-(tetrahydro-pyran-2-yloxy)-ethyl]-1H-pyrazol-4-yl}-phenyl)-2H-pyrrolo[1,2-a]pyrazin-1-one]	< 300 nM	300 to 3000 nM	–
O=c1[nH]c(-c2ccc(-c3cnn(CCO)c3)cc2)cn2cccc12 [Compound A32, 3-{4-[1-(2-hydroxy-ethyl)-1H-pyrazol-4-yl]-phenyl}-2H-pyrrolo[1,2-a]pyrazin-1-one]	< 300 nM	< 300 nM	300 to 3000 nM
O=c1[nH]c(-c2ccccc2)cn2cccc12 [Compound A2, 3-phenyl-2H-pyrrolo[1,2-a]pyrazin-1-one]	300 to 3000 nM	300 to 3000 nM	–
Cn1cc(-c2ccc(-c3cn4cc(F)cc4c(=O)[nH]3)cc2)cn1 [Compound A90]	< 300 nM	300 to 3000 nM	300 to 3000 nM
Cc1cc2c(=O)[nH]c(-c3ccc(OC(F)(F)F)cc3)cn2n1 [Compound A34, 2-methyl-6-(4-trifluoromethoxy-phenyl)-5H-pyrazolo[1,5-a]pyrazin-4-one]	< 300 nM	300 to 3000 nM	300 to 3000 nM
O=c1[nH]c(-c2ccc(Br)cc2)cn2cc(F)cc12 [Compound A58, 3-(4-bromo-phenyl)-7-fluoro-2H-pyrrolo[1,2-a]pyrazin-1-one]	< 300 nM	< 300 nM	–
O=c1[nH]c(-c2ccc(C3CCNCC3)cc2)cn2cc(F)cc12 [Compound A77, 7-fluoro-3-(4-piperidin-4-yl-phenyl)-2H-pyrrolo[1,2-a]pyrazin-1-one]	< 300 nM	300 to 3000 nM	300 to 3000 nM
COC(=O)c1ccc(-c2cn3cccc3c(=O)[nH]2)cc1 [Compound A28, 4-(1-oxo-1,2-dihydro-pyrrolo[1,2-a]pyrazin-3-yl)-benzoic acid methyl ester]	< 300 nM	300 to 3000 nM	300 to 3000 nM
CC(C)(C)c1ccc(-c2cn3nc(C(F)(F)F)cc3c(=O)[nH]2)cc1 [Compound A55, 6-(4-tert-butyl-phenyl)-2-trifluoromethyl-5H-pyrazolo[1,5-a]pyrazin-4-one]	< 300 nM	–	–
CC1(C)CCC(C)(C)c2cc(-c3cn4cccc4c(=O)[nH]3)ccc21 [Compound A5, 3-(5,5,8,8-tetramethyl-5,6,7,8-tetrahydro-naphthalen-2-yl)-2H-pyrrolo[1,2-a]pyrazin-1-one]	3000 to 50000 nM	–	–
O=c1[nH]c(-c2ccc(N3CCCC3)cc2)cn2nc(CO)cc12 [Compound A19, 2-hydroxymethyl-6-(4-pyrrolidin-1-yl-phenyl)-5H-pyrazolo[1,5-a]pyrazin-4-one]	< 300 nM	300 to 3000 nM	300 to 3000 nM
O=c1[nH]c(-c2ccc(Br)cc2)cn2nc(CBr)cc12 [Compound A36, 2-bromomethyl-6-(4-bromo-phenyl)-5H-pyrazolo[1,5-a]pyrazin-4-one]	300 to 3000 nM	3000 to 50000 nM	–
O=c1[nH]c(-c2ccc(OC(F)(F)F)cc2)cn2nccc12 [Compound A16, 6-(4-trifluoromethoxy-phenyl)-5H-pyrazolo[1,5-a]pyrazin-4-one]	300 to 3000 nM	3000 to 50000 nM	–
CC(C)n1cc(-c2cn3nc(CO)cc3c(=O)[nH]2)cn1 [Compound A22, 2-hydroxymethyl-6-(1-isopropyl-1H-pyrazol-4-yl)-5H-pyrazolo[1,5-a]pyrazin-4-one]	3000 to 50000 nM	–	–
Cc1cc2c(=O)[nH]c(-c3cnn(C(C)(C)C)c3)cn2n1 [Compound A52, 2-methyl-6-(1-tert-butyl-1H-pyrazol-4-yl)-5H-pyrazolo[1,5-a]pyrazin-4-one]	300 to 3000 nM	3000 to 50000 nM	–
Cn1cc(-c2cn3cccc3c(=O)[nH]2)cn1 [Compound A14, 3-(1-methyl-1H-pyrazol-4-yl)-2H-pyrrolo[1,2-a]pyrazin-1-one]	300 to 3000 nM	300 to 3000 nM	–
CC(C)Oc1ccc(-c2cn3nc(CO)cc3c(=O)[nH]2)cc1 [Compound A20, 2-hydroxymethyl-6-(4-isopropoxy-phenyl)-5H-pyrazolo[1,5-a]pyrazin-4-one]	300 to 3000 nM	3000 to 50000 nM	–
